Each structure is given as a SMILES string.

The subject of the assay is Dirofilaria immitis L1 larvae. The experiment in a line: Screening against microfilaria (L1 larvae) of Dirofilaria immitis, survival/motility. Format: in vivo. The conditions noted are these: 72 h, read-out: Ranked D. immitis L1 MED Activity. Here is the method: Example 44. Screening of Compounds Against Microfilaria of Dirofilaria immitis
To evaluate the efficacy of compounds of the disclosure against Dirofilaria immitis, L1 stage larvae were exposed to various concentrations of the compounds to determine survival or paralysis of the larvae. Results are reported as the minimum effective dose (MED), defined as the concentration required to eliminate motility.
To perform the assay, microfilaria of Dirofilaria immitis were added to the wells of a microtiter plate containing buffer and the test compounds in DMSO. Microfilaria exposed to DMSO alone served as controls. An assessment was conducted at 72 hours to determine survival of the microfilaria.
In the case of `CN(CC1CN(S(C)(=O)=O)CCS1(=O)=O)c1cc(N2CCCC3(CCCCC3)C2)nc(C(F)(F)F)n1` (centres unmarked) [Compound 42, 2-(((6-(2-azaspiro[5.5]undecan-2-yl)-2-(trifluoromethyl)pyrimidin-4-yl)(methyl)amino)methyl)-4-(methylsulfonyl)thiomorpholine 1,1-dioxide], the minimal effective concentration is above 100000 µM.

With `CS(=O)(=O)N1CC2(CC(Nc3cc(N4CCCC5(CCCCC5)C4)nc(C(F)(F)F)n3)C2)C1` [Compound 12, N-(6-(2-azaspiro[5.5]undecan-2-yl)-2-(trifluoromethyl)pyrimidin-4-yl)-2-(methylsulfonyl)-2-azaspiro[3.3]heptan-6-amine], the minimal effective concentration was above 100000 µM.

Consider `CN(C)CCN(CC1CN(S(C)(=O)=O)CCO1)c1cc(N2CCCC3(CCCCC3)C2)nc(C(F)(F)F)n1` (centres unmarked) [Compound 39, N1-(6-(2-azaspiro[5.5]undecan-2-yl)-2-(trifluoromethyl)pyrimidin-4-yl)-N2,N2-dimethyl-N1-((4-(methylsulfonyl)morpholin-2-yl)methyl)ethane-1,2-diamine], for which the minimal effective concentration was below 10000 µM.

On to `CN(Cc1ccc(S(=O)(=O)N(C)C)cc1)c1cc(N2CCCC3(CCCCC3)C2)nc(C(F)(F)F)n1` [Compound 5, 4-(((6-(2-azaspiro[5.5]undecan-2-yl)-2-(trifluoromethyl)pyrimidin-4-yl)(methyl)amino)methyl)-N,N-dimethylbenzenesulfonamide], for which the minimal effective concentration was above 100000 µM.

Take `CN(Cc1ccc(S(C)(=O)=O)cc1)c1cc(N2CCCC3(CCCCC3)C2)nc(C(F)(F)F)n1` [Compound 6, N-methyl-N-(4-(methylsulfonyl)benzyl)-6-(2-azaspiro[5.5]undecan-2-yl)-2-(trifluoromethyl)pyrimidin-4-amine]: the minimal effective concentration is above 100000 µM.

On to `CN(CC1CCCN(S(C)(=O)=O)C1)c1cc(N2CCCC3(CCCCC3)C2)nc(C(F)(F)F)n1` (centres unmarked) [Compound 14, N-methyl-N-((1-(methylsulfonyl)piperidin-3-yl)methyl)-6-(2-azaspiro[5.5]undecan-2-yl)-2-(trifluoromethyl)pyrimidin-4-amine], for which the minimal effective concentration is above 100000 µM.

Regarding `CN(CCC1CN(S(C)(=O)=O)CCO1)c1cc(N2CCCC3(CCCCC3)C2)nc(C(F)(F)F)n1` (centres unmarked) [Compound 44, N-methyl-N-(2-(4-(methylsulfonyl)morpholin-2-yl)ethyl)-6-(2-azaspiro[5.5]undecan-2-yl)-2-(trifluoromethyl)pyrimidin-4-amine], the minimal effective concentration is above 100000 µM.

With `CN(C[C@H]1CN(S(C)(=O)=O)CCO1)c1cc(N2CCCC3(CCCCC3)C2)nc(C(F)(F)F)n1` [Compound 1, (S)-N-methyl-N-((4-(methylsulfonyl)morpholin-2-yl)methyl)-6-(2-azaspiro[5.5]undecan-2-yl)-2-(trifluoromethyl)pyrimidin-4-amine], the minimal effective concentration was below 10000 µM.

For the molecule `CN(CC1CN(S(=O)(=O)C2CC2)CCO1)c1cc(N2CCOC3(CCCCC3)C2)nc(C(F)(F)F)n1` (centres unmarked) [Compound 32, N-((4-(cyclopropylsulfonyl)morpholin-2-yl)methyl)-N-methyl-6-(1-oxa-4-azaspiro[5.5]undecan-4-yl)-2-(trifluoromethyl)pyrimidin-4-amine], the minimal effective concentration was below 10000 µM.

As for `CS(=O)(=O)N1CCOC2CN(c3cc(N4CCOC5(CCCCC5)C4)nc(C(F)(F)F)n3)CCC21` (centres unmarked) [Compound 34, 4-(6-(1-(methylsulfonyl)octahydro-6H-pyrido[3,4-b][1,4]oxazin-6-yl)-2-(trifluoromethyl)pyrimidin-4-yl)-1-oxa-4-azaspiro[5.5]undecane], the minimal effective concentration is below 30000 µM.

With `CS(=O)(=O)N1CCOC(CN(Cc2ccccc2)c2cc(N3CCOC4(CCCCC4)C3)nc(C(F)(F)F)n2)C1` (centres unmarked) [Compound 19, N-benzyl-N-((4-(methylsulfonyl)morpholin-2-yl)methyl)-6-(1-oxa-4-azaspiro[5.5]undecan-4-yl)-2-(trifluoromethyl)pyrimidin-4-amine], the minimal effective concentration was above 100000 µM.

The record behind these values is patent publication US20260365642A1, “ANTIPARASITIC COMPOUNDS” (Animol Discovery, Inc., priority 2023, published 2026).
